Assay results published in patent US9113629B2, “4-amino-6-(4-substituted-phenyl)-picolinates and 6-amino-2-(4-substituted-phenyl)-pyrimidine-4-carboxylates and their use as herbicides” (DOW AGROSCIENCES LLC, priority 2013, dated 2015).
Read-outs that look alike come from different tables or passages of the source.

How the values were obtained:
[1] = system: Key Broadleaf Weed and Crop Species; assay: Post-emergent Test II herbicidal activity (Table 5); assay type: in vivo; details: post-emergence, 336 h, post-emergent, 14 days after application; for pest or weed control at 70 g/ha: 70 g ai/ha; for pest or weed control at 140 g/ha: 140 g ai/ha
In short: (§1)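 Post-emergence foliar spray, 187 L/ha, track sprayer at 43 cm above canopy. Carrier: acetone/water/IPA/DMSO/Atplus 411F/Triton X-155. Plants at 1st–2nd true leaf; subirrigated afterwards; % injury scored visually at 14 d.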

[2] = system: Key Grass and Sedge Weeds as well as Grass Crops; assay: Post-emergent Test II herbicidal activity (Table 6); assay type: in vivo; details: post-emergence, 336 h; for pest or weed control at 70 g/ha: application rate 70 g ai/ha; for pest or weed control at 140 g/ha: application rate 140 g ai/ha
In short: as §1

[3] = ABUTH: velvetleaf (Abutilon theophrasti), read-out: Visual Growth Reduction (%) 14 Days After Application ABUTH
[4] = AMARE: redroot pigweed (Amaranthus retroflexus), read-out: Visual Growth Reduction (%) 14 Days After Application AMARE
[5] = BRSNN: oilseed-rape, canola (Brassica napus), read-out: Visual Growth Reduction (%) 14 Days After Application BRSNN
[6] = CHEAL: lambsquarters (Chenopodium album), read-out: Visual Growth Reduction (%) 14 Days After Application CHEAL
[7] = EPHHL: wild poinsettia (Euphorbia heterophylla), read-out: Visual Growth Reduction (%) 14 Days After Application EPHHL
[8] = HELAN: sunflower (Helianthus annuus), read-out: Visual Growth Reduction (%) 14 Days After Application HELAN
[9] = VIOTR: wild pansy (Viola tricolor), read-out: Visual Growth Reduction (%) 14 Days After Application VIOTR
[10] = CYPES: yellow nutsedge (Cyperus esculentus), read-out: Visual Growth Reduction (%) 14 Days After Application, CYPES
[11] = DIGSA: crabgrass (Digitaria sanguinalis), read-out: Visual Growth Reduction (%) 14 Days After Application, DIGSA
[12] = ECHCG: barnyardgrass (Echinochloa crus-galli), read-out: Visual Growth Reduction (%) 14 Days After Application, ECHCG
[13] = ORYSA: rice (Oryza sativa), read-out: Visual Growth Reduction (%) 14 Days After Application, ORYSA
[14] = SETFA: giant foxtail (Setaria faberi), read-out: Visual Growth Reduction (%) 14 Days After Application, SETFA
[15] = SORVU: grain sorghum (Sorghum vulgare), read-out: Visual Growth Reduction (%) 14 Days After Application, SORVU
[16] = TRZSS (wheat, Triticum aestivum), read-out: Visual Growth Reduction (%) 14 Days After Application, TRZSS
[17] = ZEAMX: maize, corn (Zea mays), read-out: Visual Growth Reduction (%) 14 Days After Application, ZEAMX

Structure (SMILES): COC(=O)c1nc(-c2ccc(C#N)cc2F)c(F)c(N)c1Cl [Compound 44, Methyl 4-amino-3-chloro-6-(4-cyano-2-fluorophenyl)-5-fluoropicolinate]
- pest or weed control at 70 g/ha [1, 3]: 30 to 44%
- pest or weed control at 140 g/ha [1, 3]: 60 to 74%
- pest or weed control at 70 g/ha [1, 4]: 75 to 84%
- pest or weed control at 140 g/ha [1, 4]: 95 to 100%
- pest or weed control at 70 g/ha [1, 5]: 0 to 29%
- pest or weed control at 140 g/ha [1, 5]: 0 to 29%
- pest or weed control at 70 g/ha [1, 6]: 75 to 84%
- pest or weed control at 140 g/ha [1, 6]: 85 to 94%
- pest or weed control at 70 g/ha [1, 7]: 85 to 94%
- pest or weed control at 140 g/ha [1, 7]: 95 to 100%
- pest or weed control at 70 g/ha [1, 8]: 85 to 94%
- pest or weed control at 140 g/ha [1, 8]: 95 to 100%
- pest or weed control at 70 g/ha [1, 9]: 0 to 29%
- pest or weed control at 140 g/ha [1, 9]: 0 to 29%
- pest or weed control at 70 g/ha [2, 10]: 30 to 44%
- pest or weed control at 140 g/ha [2, 10]: 45 to 59%
- pest or weed control at 70 g/ha [2, 11]: 0 to 29%
- pest or weed control at 140 g/ha [2, 11]: 0 to 29%
- pest or weed control at 70 g/ha [2, 12]: 0 to 29%
- pest or weed control at 140 g/ha [2, 12]: 0 to 29%
- pest or weed control at 70 g/ha [2, 13]: 0 to 29%
- pest or weed control at 140 g/ha [2, 13]: 0 to 29%
- pest or weed control at 70 g/ha [2, 14]: 0 to 29%
- pest or weed control at 140 g/ha [2, 14]: 0 to 29%
- pest or weed control at 70 g/ha [2, 15]: 0 to 29%
- pest or weed control at 140 g/ha [2, 15]: 0 to 29%
- pest or weed control at 70 g/ha [2, 16]: 30 to 44%
- pest or weed control at 140 g/ha [2, 16]: 30 to 44%
- pest or weed control at 70 g/ha [2, 17]: 0 to 29%
- pest or weed control at 140 g/ha [2, 17]: 0 to 29%

Structure (SMILES): N#Cc1ccc(-c2nc(C(=O)O)c(Cl)c(N)c2F)c(F)c1 [Compound 65, 4-amino-3-chloro-6-(4-cyano-2-fluorophenyl)-5-fluoropicolinic acid]
- pest or weed control at 70 g/ha [1, 3]: 0 to 29%
- pest or weed control at 140 g/ha [1, 3]: 0 to 29%
- pest or weed control at 70 g/ha [1, 4]: 95 to 100%
- pest or weed control at 140 g/ha [1, 4]: 95 to 100%
- pest or weed control at 70 g/ha [1, 5]: 0 to 29%
- pest or weed control at 140 g/ha [1, 5]: 30 to 44%
- pest or weed control at 70 g/ha [1, 6]: 60 to 74%
- pest or weed control at 140 g/ha [1, 6]: 75 to 84%
- pest or weed control at 70 g/ha [1, 7]: 95 to 100%
- pest or weed control at 140 g/ha [1, 7]: 95 to 100%
- pest or weed control at 70 g/ha [1, 8]: 85 to 94%
- pest or weed control at 140 g/ha [1, 8]: 95 to 100%
- pest or weed control at 70 g/ha [1, 9]: 0 to 29%
- pest or weed control at 140 g/ha [1, 9]: 30 to 44%
- pest or weed control at 70 g/ha [2, 10]: 0 to 29%
- pest or weed control at 140 g/ha [2, 10]: 0 to 29%
- pest or weed control at 70 g/ha [2, 11]: 0 to 29%
- pest or weed control at 140 g/ha [2, 11]: 0 to 29%
- pest or weed control at 70 g/ha [2, 12]: 0 to 29%
- pest or weed control at 140 g/ha [2, 12]: 0 to 29%
- pest or weed control at 70 g/ha [2, 13]: 0 to 29%
- pest or weed control at 140 g/ha [2, 13]: 0 to 29%
- pest or weed control at 70 g/ha [2, 14]: 0 to 29%
- pest or weed control at 140 g/ha [2, 14]: 0 to 29%
- pest or weed control at 70 g/ha [2, 15]: 0 to 29%
- pest or weed control at 140 g/ha [2, 15]: 0 to 29%
- pest or weed control at 70 g/ha [2, 16]: 0 to 29%
- pest or weed control at 140 g/ha [2, 16]: 0 to 29%
- pest or weed control at 70 g/ha [2, 17]: 0 to 29%
- pest or weed control at 140 g/ha [2, 17]: 0 to 29%
